{"source": "patent US4632925A", "about": "“N-substituted diphenylpiperidines and antiobesity use thereof” (Hoffmann-La Roche Inc., priority 1985, dated 1986)", "key": {"[1]": {"assay": "Glucose clearance: acute in vivo model", "parameters": "species or system Sprague-Dawley rats", "conditions": "Rattus norvegicus, po, 0.5 h; 100 mg/kg intragastric, 30 min before i.p. glucose 1 g/kg; circulating glucose at 30 min; >100% indicates activity", "experimental": "GLUCOSE CLEARANCE: ACUTE IN VIVO MODEL\nThe rationale for this test is that compounds which suppress insulin secretion should increase circulating glucose levels above those observed in controls following the administration of a high glucose load. Sprague-Dawley rats which range in weight from 150 to 180 grams after an overnight fast of 16 or 18 hours are given the test compound (100 mg/kg body weight) by intragastric administration 30 minutes before the intraperitoneal administration of glucose (1 g/kg body weight). Circulating glucose levels are determined immediately before glucose administration and 30, 60 and 90 minutes after glucose administration. Active compounds increase circulating glucose levels compared to controls. Since glucose levels peak at 30 minutes following glucose administration, the difference in circulating glucose levels between controls and treated rats at 30 minutes is used as an index of activity. The data are expressed as percent of control."}, "[2]": {"assay": "Antiobesity effects in obese Zucker rats", "format": "in vivo, genetically obese male Zucker rats", "conditions": "for Circulating Insulin: last day of treatment", "experimental": "ANTIOBESITY EFFECTS IN OBESE ZUCKER RATS\nGenetically Obese Male Zucker rats were kept in temperature (22° C.) and light (12 hours light-dark cycle) regulated rooms. One week prior to the start of the experiment, the rats were transferred to individual wirebottomed cages and trained to eat a powdered chow diet (Ralston Purina Co., St. Louis, Mo.) ad libitum.\nAt the beginning of the experiment, the control group contributed to eat the chow diet and the experimental animals were given a chow diet containing drug. The amount of drug administered was calculated from the food intake per kg body weight for each experimental group. The age of the rats at the start of the drug treatment was two to three months. The period of treatment was 28 to 64 days. Food intake and body weights were recorded periodically (once each day to twice a week) throughout the duration of the study. Plasma samples for insulin and glucose determinations were taken from clipped tails. Carcass composition was determined at the end of the treatment period and, or comparative purposes, prior to the start of treatment."}, "[3]": {"assay": "Antiobesity effects in obese Zucker rats", "format": "in vivo, genetically obese male Zucker rats", "conditions": "14 days"}, "[4]": {"test_system": "isolated perfused rat pancreas (insulin secretion)", "assay": "Insulin-secretory activity in the isolated perfused rat pancreas", "parameters": "species or system rat (female Charles River)", "conditions": "50 μM; 16.7 mM glucose; index > 1 indicates suppression of insulin secretion", "experimental": "DETERMINATION OF INSULIN-SECRETORY ACTIVITY IN THE ISOLATED PERFUSED RAT PANCREAS\nPancreases were obtained from young adult female Charles River rats weighing from 200-300 g. The animals were anesthesized with sodium pentobarbitol (45 mg/kg), injected intraperitoneally, and the pancreas with its intact vasculature was removed and connected to an extracorporeal perfusion apparatus.\nThe basic perfusion solution contained: 133 mM NaCl, 4.4 mM KCl, 2.5 mM MgSO4, 2.4 mM Ca gluconate, 1.5 mM KH2 PO4, 29.4 mM HaHCO3, 4% dextran and 0.2% bovine serum albumin and glucose as discussed below. The perfusion flow rate was kept constant at 4 ml/min. After a 15-20 minute equilibration period, the experimental protocol was begun. The pancreatic effluent was collected in either one or four-minute fractions.\nThe perfusion was run in the following sequence for each test compounds:\n30 min 16.7 mM glucose--internal control\n30 min 16.7 mM glucose and test compound\n10 min 16.7 mM glucose--to check pancreas viability\nThe perfusion for the nontreated pancreas preparation was run as above, except that the test compound was omitted and replaced with perfusion solution.\nTest compounds were dissolved in 90% ethanol or dimethylsulfoxide to a concentration of 25 mM and then diluted in the perfusion buffer to the desired concentration. The perfusion effluent was collected in one or four minute fractions--the samples were checked immediately, aliquoted for submission to radioimmunoassay and stored at -20° C. until the time of assay. The radioimmunoassay of insulin was carried out by a back-titration method using a pure rat insulin standard.\nTo assess the inhibitory activity of the test compounds, an inhibition index was calculated. The inhibition index is derived by comparing the insulin secretion response from treated versus nontreated pancreas preparations. For each preparation, a ratio of insulin secretion was calculated from the area under the insulin secretion curve of the first pulse of 16.7 mM glucose divided by the area under the curve of the second pulse of 16.7 mM glucose containing compound."}}}
{"molecule": "C(=C(c1ccccc1)c1ccccc1)C1CCN(CCCCCCCCc2cccnc2)CC1", "note": "[Example 25, 3-[8-[4-(2,2-diphenylethenyl)-1-piperidinyl]octyl]pyridine]", "values": [{"measurement": "response vs control in vivo at 100 mg/kg", "setting": "[1]", "result": 127, "unit": "%"}, {"measurement": "Body Weight Gain (treated minus control)", "setting": "[2]; 9 mg/kg, 28 days", "result": "+9 g"}, {"measurement": "Food Intake", "setting": "[2]; 9 mg/kg, 28 days", "result": "91 % of control"}, {"measurement": "Circulating Insulin", "setting": "[2]; 9 mg/kg, 28 days", "result": "83 % of control"}, {"measurement": "Body Weight Gain (treated minus control)", "setting": "[2]; 17 mg/kg, 28 days", "result": -16, "unit": "g"}, {"measurement": "Food Intake", "setting": "[2]; 17 mg/kg, 28 days", "result": "89 % of control"}, {"measurement": "Circulating Insulin", "setting": "[2]; 17 mg/kg, 28 days", "result": "76 % of control"}, {"measurement": "Circulating Insulin", "setting": "[2]; 24 mg/kg, 28 days, * p < 0.05", "result": "47 % of control"}, {"measurement": "Body Weight Gain (treated minus control)", "setting": "[2]; 24 mg/kg, 28 days, * p < 0.05", "result": -32, "unit": "g"}, {"measurement": "Food Intake", "setting": "[2]; 24 mg/kg, 28 days, * p < 0.05", "result": "82 % of control"}, {"measurement": "Circulating Insulin", "setting": "[2]; 28 mg/kg, 64 days, * p < 0.05", "result": "47 % of control"}, {"measurement": "Body Weight Gain (treated minus control)", "setting": "[2]; 28 mg/kg, 64 days, * p < 0.05", "result": -88, "unit": "g"}, {"measurement": "Carcass Lipid Difference (treated minus control)", "setting": "[2]; 28 mg/kg, 64 days, * p < 0.05", "result": -62, "unit": "g"}, {"measurement": "Food Intake", "setting": "[2]; 28 mg/kg, 64 days, * p < 0.05", "result": "81 % of control"}, {"measurement": "Circulating Insulin", "setting": "[2]; 34 mg/kg, 28 days, * p < 0.05", "result": "33 % of control"}, {"measurement": "Body Weight Gain (treated minus control)", "setting": "[2]; 34 mg/kg, 28 days, * p < 0.05", "result": -55, "unit": "g"}, {"measurement": "Food Intake", "setting": "[2]; 34 mg/kg, 28 days, * p < 0.05", "result": "83 % of control"}, {"measurement": "Relative Body Weight Gain Index", "setting": "[2]; 38 mg/kg, 14 days, gain / days / dose (g/kg)", "result": 92}, {"measurement": "Food Intake", "setting": "[2]; 38 mg/kg, 14 days, marked *", "result": "73 % of control"}, {"measurement": "Food Intake", "setting": "[2]; 28 days of treatment, in words", "result": "dose dependent decrease"}, {"measurement": "body weight", "setting": "[2]; 28 days of treatment, in words", "result": "dose dependent decrease in body weight"}, {"measurement": "insulin levels", "setting": "[2]; 28 days of treatment, in words", "result": "dose dependent decrease"}, {"measurement": "body weight", "setting": "[2]; 64 days, in words", "result": "Reduced body weight"}, {"measurement": "carcass lipid", "setting": "[2]; 64 days, in words", "result": "decreased carcass lipid"}, {"measurement": "Glucose levels", "setting": "[2]; treatment of obese rats, in words", "result": "unaltered by treatment"}, {"measurement": "Body Weight Gain (treated minus control)", "setting": "[3]; 38 mg/kg, marked *", "result": -49, "unit": "g"}, {"measurement": "Perfused Pancreas Inhibition Index", "setting": "[4]", "result": 38}]}
{"molecule": "O=C(CCCCCCCCc1cccnc1)N1CCC(C=C(c2ccccc2)c2ccccc2)CC1", "note": "[Example 30, 4-(2,2-Diphenylethenyl)-1-[1-oxo-9-(3-pyridinyl)nonyl]piperidine]", "values": [{"measurement": "response vs control in vivo at 100 mg/kg", "setting": "[1]", "result": 100, "unit": "%"}, {"measurement": "Body Weight Gain (treated minus control)", "setting": "[2]; 49 mg/kg, 14 days", "result": -12, "unit": "g"}, {"measurement": "Food Intake", "setting": "[2]; 49 mg/kg, 14 days", "result": "100 % of control"}, {"measurement": "Relative Body Weight Gain Index", "setting": "[3]; 49 mg/kg, gain / days / dose (g/kg)", "result": 17}, {"measurement": "Perfused Pancreas Inhibition Index", "setting": "[4]", "result": 1.4}]}
